In patent publication US20260325538A1, “THERAPY” (priority 2023, published 2026):

How the values were obtained:
[1] = system: Klebsiella pneumoniae K66-45 (NDM-1); test: Checkerboard MIC, fixed ratio of sBLI to antibiotic (Examples 3-6); type: cell-based; conditions: caMHB 29.4 μM Zn2+
Text: The antibiotics and serine β-lactamase-inhibitors (sBLIs) were purchased from the following suppliers: Ceftazidime (CAZ): Sigma-Aldrich; Cefepime (FEP): Sigma-Aldrich; Cefpodoxime (CEFP): MedChemExpress; Sulbactam (SUL): Sigma-Aldrich Avibactam (AVI): Biosynth; Vaborbactam (VAB): ABCR; Tazobactam (TAZ): Sigma-Aldrich; Taniborbactam (TAN): Sigma-Aldrich.
In each of Examples 3-23, the compound of Example 26 of WO 2018/033719 was employed as the zinc chelator. The following abbreviations are used in these examples: sBLI means serine-β-lactamase inhibitor; CFU means colony-forming unit, which is a group of microbes that grows from a single cell on a petri plate; DMSO means dimethyl sulfoxide; MHB means Mueller-Hinton broth; caMHB means cation-adjusted Mueller-Hinton broth; MIC means minimum inhibitory concentration—the lower the MIC, the more efficient the combination against the respective bacterial strain.
General Protocol Used in Examples 3-10 Employing a Fixed Ratio of sBLI to Antibiotic within Each Experiment:
Antimicrobial susceptibility testing (AST) by broth microdilution (MIC determination) was performed according to The European Committee on Antimicrobial Susceptibility Testing (EUCAST) guidelines (see Reading guide for broth microdilution Version 5.0, 2024: https://www.eucast.org).
Sterile clear round bottom polystyrene (non-treated) 96-well microplates (Corning 3788) were used for making serial two-fold dilutions of the antibiotic and the serine sBLI in cation-adjusted Mueller Hinton II broth (caMHB; Thermo Scientific, T3462, containing 29.4 μM Zn^2+), across the columns of the microtiter plate ([…]; columns 1-12). The checkerboard plates were all made by keeping the sBLI at a fixed ratio relative to antibiotic (absolute concentrations of each, in μg/mL) to all wells containing sample in each plate. Additionally, a set of samples were included in each test plate, where the zinc chelator was added, at various fixed concentrations, of 16 μg/mL, 8 μg/mL and/or 4 μg/mL (as specified in each Example). All sample wells contained growth medium (caMHB), and inoculated bacteria at a final inoculum between 3-7×10^5 CFU/mL. […] Synergy for the triple combination (antibiotic, sBLI, and zinc chelator) was defined as when the MIC in rows containing the zinc chelator in combination with antibiotic and sBLI (triple combination), was lower than for rows containing antibiotic and sBLI (double combination; no zinc chelator).
(§1) Two technical replicates were performed for each sample. An X in rows 1-8 in the table indicates bacterial growth, while a blank cell indicates no growth. Concentrations (μg/mL) of CAZ are given in row 0a. Concentrations (μg/mL) of AVI are given in row 0b. The zinc chelator was added in fixed concentrations, at 16 μg/mL in rows 3 and 4, at 8 μg/mL in rows 5 and 6, and 4 μg/mL in rows 7 and 8. As a control, the effect of CAZ and AVI (no zinc chelator) was tested (rows 1 and 2). All wells contained bacterial growth medium (caMHB, 29.4 μM Zn^2+) and were inoculated with the test bacterium. The grey cells indicate the CAZ MIC.
as §1, with “FEP” for “CAZ”
Two technical replicates were performed for each sample. An X in rows 1-8 in the table indicates bacterial growth, while a blank cell indicates no growth. Concentrations (μg/mL) of FEP are given in row 0a. Concentrations (μg/mL) of SUL are given in row 0b. […]

[2] = system: bacteria which rely on SBLs; conditions: in combination with meropenem; cited from earlier work

CN(C[C@H](O)[C@@H](O)[C@H](O)[C@H](O)CO)C(=O)c1ccc(CN(Cc2ccccn2)Cc2ccccn2)nc1 [zinc chelator]
variable synergy: synergy with the zinc chelator ([1]; zinc chelator 4 μg/mL, with CAZ and AVI (fixed ratio)) | synergy with the zinc chelator ([1]; zinc chelator 4 μg/mL, with FEP and AVI (fixed ratio))
Synergy: synergy with the zinc chelator ([1]; zinc chelator 8 μg/mL, with CAZ and AVI (fixed ratio)) | synergy with the zinc chelator ([1]; zinc chelator 8 μg/mL, with FEP and AVI (fixed ratio)) | synergy with the zinc chelator ([1]; zinc chelator 8 μg/mL, with FEP and SUL (fixed ratio)) | synergy with the zinc chelator ([1]; zinc chelator 8 μg/mL, with FEP and TAZ (fixed ratio)) | synergy with the zinc chelator ([1]; zinc chelator 16 μg/mL, with CAZ and AVI (fixed ratio)) | synergy with the zinc chelator ([1]; zinc chelator 16 μg/mL, with FEP and AVI (fixed ratio)) | synergy with the zinc chelator ([1]; zinc chelator 16 μg/mL, with FEP and SUL (fixed ratio)) | synergy with the zinc chelator ([1]; zinc chelator 16 μg/mL, with FEP and TAZ (fixed ratio))
no effect: effect of combination with meropenem [2]
